The results in this text go back to patent publication US11319303B2 (WIGEN BIOMEDICINE TECHNOLOGY (SHANGHAI) CO., LTD., priority 2017, dated 2022).

Counter-ions that a name gives are not always drawn. Where only a bound is given, the exact number is not on record here.

In one test the target is LC3B (Homo sapiens, UniProt Q9GZQ8). Briefly: Fluorescence Polarization (FP) Assay: displacement of FITC-labeled peptide from GST-LC3B. Type of test: binding.
Settings: not given
How it is done: The compounds of the present invention for regulating the autophagy-related protein LC3B were tested by Fluorescence Polarization (FP) Assay.
Fluorescence Polarization (FP) Assay Test
(Polarisation of emitted light reports the rotation of a fluorescent probe.)
Take `CN(C)CCNC=C1C(=O)CC(c2cccnc2Br)CC1=O` (stereo not drawn) [Compound 338, 5-(2-bromopyridin-3-yl)-2-(((2-(dimethylamino)ethyl)amino)methylene) cyclohexane-1,3-dione]: the IC50 was less than 3 µM.
On the same count and under the same terms, as for `CN(C)CCNC=C1C(=O)CC(c2cccc(F)c2Br)CC1=O` (stereo not drawn) [Compound 350, 5-(2-bromo-3-fluorophenyl)-2-(((2-(dimethylamino)ethyl)amino)methylene) cyclohexane-1,3-dione], the figure is less than 3 µM.

The same test, now with this note: Fluorescence Polarization assay; GST-LC3B 180 nM, FITC-labeled peptide 18 nM, 25° C.; read-out: IC50.
Take `Cc1ccc(NC(=O)N2CCN(CCNC=C3C(=O)CC(c4ccc(C)cc4)CC3=O)CC2)cc1` (stereo not drawn) [Compound 224, 4-(2-(((2,6-dioxo-4-(p-tolyl)cyclohexylidene)methyl)amino)ethyl)-N-(p-tolyl)piperazine-1-carboxamide]: the IC50 is less than 3 µM.
As to `COc1cc2ncnc(C3CC(=O)C(=CNCCN4CCN(CCO)CC4)C(=O)C3)c2cc1OC` (stereo not drawn) [Compound 26, 5-(6,7-dimethoxyquinazolin-4-yl)-2-(((2-(4-(2-hydroxyethyl)piperazin-1-yl)ethyl)amino)methylene) cyclohexane-1,3-dione], the IC50 is 15 to 100 µM.
Still for that read-out and setting: as for `N#CC1C(=O)C(=CNCCN2CCN(CCO)CC2)C(=O)CC1c1ccccc1` (stereo not drawn) [Compound 327, 2-(((2-(4-(2-hydroxyethyl)piperazin-1-yl)ethyl)amino)methylene)-4-cyano-5-phenylcyclohexane-1,3-dione], the figure is less than 3 µM; as for `O=C1CC(c2cncnc2)CC(=O)C1=CNCCN1CCN(CCO)CC1` (stereo not drawn) [Compound 90, 2-(((2-(4-(2-hydroxyethyl)piperazin-1-yl)ethyl)amino)methylene)-5-(pyrimidin-5-yl)cyclohexane-1,3-dione], 100 to 1000 µM.
In the case of `CCOC(=O)[C@H](C)NC=C1C(=O)CC(c2ccccc2)CC1=O` (stereo partly drawn) [Compound 162, ethyl ((2,6-dioxo-4-phenylcyclo-hexylidene)methyl)-L-alaninate], the IC50 was 15 to 100 µM.
Same read-out and setting: as for `O=C1CC(c2cccc3[nH]ncc23)CC(=O)C1=CNCCN1CCN(CCO)CC1` (stereo not drawn) [Compound 93, 2-(((2-(4-(2-hydroxyethyl)piperazin-1-yl)ethyl)amino)methylene)-5-(1H-indazol-4-yl)cyclohexane-1,3-dione], the figure is 3 to 15 µM.
Same read-out and setting: as for `CC1CC(=O)C(=CNCCN2CCN(CCO)CC2)C(=O)C1` (stereo not drawn) [Compound 14, 2-(((2-(4-(2-hydroxyethyl)piperazin-1-yl)ethyl)amino)methylene)-5-methylcyclohexane-1,3-dione], the figure is 100 to 1000 µM; as for `O=C1CC(c2ccc(C(F)(F)F)cc2)CC(=O)C1=CNCCN1CCN(CCO)CC1` (stereo not drawn) [Compound 48, 2-(((2-(4-(2-hydroxyethyl)piperazin-1-yl)ethyl)amino)methylene)-5-(4-(trifluoromethyl)phenyl) cyclohexane-1,3-dione], less than 3 µM.
As for `O=C1Nc2ccc(-c3ccccc3)cc2C(=O)/C1=C/NCCN1CCN(CCO)CC1` [Compound 328, 3-(((2-(4-(2-hydroxyethyl)piperazin-1-yl)ethyl)amino)methylene)-6-phenylquinoline-2,4(1H,3H)-dione], the IC50 was 3 to 15 µM.
As to `O=C1CCCCC(=O)C1=CNCCN1CCN(CCO)CC1` [Compound 352, 2-(((2-(4-(2-hydroxyethyl)piperazin-1-yl)ethyl)amino)methylene) cycloheptane-1,3-dione], the IC50 was in the range of 100 to 1000 µM.
The same measure, in the same setting: as for `COc1ccc2c(c1)C(=O)/C(=C/NCCN1CCN(CCO)CC1)C(=O)N2` [Compound 196, 3-(((2-(4-(2-hydroxyethyl)piperazin-1-yl)ethyl)amino)methylene)-6-methoxyquinoline-2,4(1H,3H)-dione], the figure is 3 to 15 µM; as for `O=C1CC(c2ccccc2)CC(=O)C1=CNCCCCl` (stereo not drawn) [Compound 133, 2-(((3-chloropropyl)amino)methylene)-5-phenylcyclohexane-1,3-dione], 100 to 1000 µM.
Same read-out and setting: as for `O=C1CN(Cc2ccccc2)CC(=O)C1=CNCCN1CCN(CCO)CC1` [Compound 103, 1-benzyl-4-(((2-(4-(2-hydroxyethyl)piperazin-1-yl)ethyl)amino)methylene)-piperidine-3,5-dione], the figure is 15 to 100 µM; as for `O=C1CC(c2ccccc2)CC(=O)C1=CNCCN1CCN(C(=O)c2ccccc2)CC1` (stereo not drawn) [Compound 216, 2-(((2-(4-benzoylpiperazin-1-yl)ethyl)amino)methylene)-5-phenylcyclohexane-1,3-dione], less than 3 µM; as for `O=C1CC(c2c[nH]c3cccc(Br)c23)CC(=O)C1=CNCCN1CCN(CCO)CC1` (stereo not drawn) [Compound 375, 5-(4-bromo-1H-indol-3-yl)-2-(((2-(4-(2-hydroxyethyl)piperazin-1-yl)ethyl)amino)methylene) cyclohexane-1,3-dione], less than 3 µM.
For `O=C1CC(c2ccccc2)CC(=O)C1=CNC1CCC(O)CC1` (stereo not drawn) [Compound 136, 2-(((4-hydroxycyclohexyl)amino)methylene)-5-phenylcyclohexane-1,3-dione], the IC50 was 100 to 1000 µM.
`O=C1CC(c2nccs2)CC(=O)C1=CNCCN1CCN(CCO)CC1` (stereo not drawn) [Compound 57, 2-(((2-(4-(2-hydroxyethyl)piperazin-1-yl)ethyl)amino)methylene)-5-(thiazol-2-yl) cyclohexane-1,3-dione]: the IC50 was 15 to 100 µM.
The same measure, in the same setting: as for `O=C1/C(=C/NCCN2CCN(CCO)CC2)Oc2ccccc21` [Compound 183, 2-(((2-(4-(2-hydroxyethyl)piperazin-1-yl)ethyl)amino)methylene) benzofuran-3(2H)-one], the figure is 100 to 1000 µM.
Turning to `O=C1CC(c2ccc3cc[nH]c3c2)CC(=O)C1=CNCCN1CCN(CCO)CC1` (stereo not drawn) [Compound 315, 2-(((2-(4-(2-hydroxyethyl)piperazin-1-yl)ethyl)amino)methylene)-5-(1H-indol-6-yl)cyclohexane-1,3-dione], the IC50 is less than 3 µM.
Consider `O=C1CC(c2ccccc2)OC(=O)C1=CNCCN1CCN(CCO)CC1` (stereo not drawn) [Compound 95, 3-(((2-(4-(2-hydroxyethyl)piperazin-1-yl)ethyl)amino)methylene)-6-phenyldihydro-2H-pyran-2,4(3H)-dione], for which the IC50 was in the range of 15 to 100 µM.
As to `O=C1Nc2ccccc2C(=O)/C1=C/NCCN1CCN(CCO)CC1` [Compound 107, 3-(((2-(4-(2-hydroxyethyl)piperazin-1-yl)ethyl)amino)methylene)quinoline-2,4(1H,3H)-dione], the IC50 was 15 to 100 µM.
The same measure, in the same setting: as for `CC(C)CC1CC(=O)C(=CN(C)C)C(=O)C1` (stereo not drawn) [Compound 276, 2-((dimethylamino)methylene)-5-isobutylcyclo-hexane-1,3-dione], the figure is 15 to 100 µM; as for `COc1ccccc1C1CC(=O)C(=CNCCN(C)C)C(=O)C1` (stereo not drawn) [Compound 310, 2-(((2-(dimethylamino)ethyl)amino)methylene)-5-(2-methoxyphenyl) cyclohexane-1,3-dione], less than 3 µM.
On the same count and under the same terms, as for `C=CC(=O)N1CCN(CCNC=C2C(=O)CC(c3ccc(C)cc3)CC2=O)CC1` (stereo not drawn) [Compound 232, 2-(((2-(4-acryloylpiperazin-1-yl)ethyl)amino)methylene)-5-(p-tolyl) cyclohexane-1,3-dione], the figure is less than 3 µM.
On the same count and under the same terms, as for `O=C1CC(c2ccccc2)CC(=O)C1=CNC[C@@H](O)[C@H](O)[C@@H](O)[C@@H](O)CO` (stereo partly drawn) [Compound 163, 2-((((2R,3S,4S,5S)-2,3,4,5,6-pentahydroxyhexyl)amino)methylene)-5-phenylcyclohexane-1,3-dione], the figure is 100 to 1000 µM.
In the case of `CCC(CC)C1CC(=O)C(=CNCCN2CCN(CCO)CC2)C(=O)C1` (stereo not drawn) [Compound 63, 2-(((2-(4-(2-hydroxyethyl)piperazin-1-yl)ethyl)amino)methylene)-5-(pentan-3-yl) cyclohexane-1,3-dione], the IC50 lay in the range of 15 to 100 µM.
For the molecule `CN(C)CCNC=C1C(=O)CC(c2c[nH]c(-c3ccccc3)c2)CC1=O` (stereo not drawn) [Compound 414, 2-(((2-(dimethylamino)ethyl)amino)methylene)-5-(5-phenyl-1H-pyrrole-3-yl)cyclohexane-1,3-dione], the IC50 was 3 to 15 µM.
On the same count and under the same terms, as for `O=C1Oc2ccccc2C(=O)C1=CNCCN1CCN(CCO)CC1` [Compound 155, 3-(((2-(4-(2-hydroxyethyl)piperazin-1-yl)ethyl)amino)methylene) chromanone-2,4-dione], the figure is 15 to 100 µM; as for `Cn1cccc1C1CC(=O)C(=CNCCN2CCN(CCO)CC2)C(=O)C1` (stereo not drawn) [Compound 55, 2-(((2-(4-(2-hydroxyethyl)piperazin-1-yl)ethyl)amino)methylene)-5-(1-methyl-1H-pyrrol-2-yl)cyclohexane-1,3-dione], 15 to 100 µM; as for `O=C1CC([C@]23C[C@H]4C[C@H](C[C@H](C4)C2)C3)CC(=O)C1=CNCCN1CCN(CCO)CC1` (stereo partly drawn) [Compound 78], 15 to 100 µM.
For the molecule `O=C1CC(c2ccsc2)CC(=O)C1=CO` (stereo not drawn) [Compound 457, 2-(hydroxy-methylene)-5-(3-thiophen)cyclo-hexane-1,3-dione sodium salt], the IC50 fell in the range of 3 to 15 µM.

As usually defined, the IC50 is the point on the concentration scale where inhibition reaches its midpoint.
